Usually IC50 stands for the concentration that gives 50% inhibition. The inhibition is the change of the read-out against control, counted positive when it falls.

Consider 20 compounds from patent US10975068B2, “6-aminopyridin-3-yl thiazoles as modulators of RORγT” (Janssen Pharmaceutica NV, priority 2016, dated 2021).

The target of the assay is full-length human RORγt (Homo sapiens (Human), UniProt P51449). Put plainly: RORγt (full-length human) reporter assay, Conditions B or C. In kind it is cell-based. The note with it: for RORγt (FL) Reporter Assay B or C, % inhibition (value marked *): marked *: footnote not given; for inhibition at 3 µM: at 3 μM compound concentration, read-out: RORγt (FL) Reporter Assay B or C, % inhibition; for inhibition at 6 µM: read-out: RORγt (FL) Reporter Assay B or C, % inhibition @ 6 μM, Conditions B or C. A digest of the protocol: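 Readout is dual luciferase: firefly (GAL4-driven) normalized to DMSO-only and saturating-reference controls, then to CMV-Renilla. Full-length human RORγt fused to GAL4-DBD was transiently expressed in HEK293T; compound exposure ran overnight (16-20 h) starting 4-6 h after transfection, final FBS 1.3%, DMSO 0.1%.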
A general note: In a reporter assay the amount or activity of a reporter protein is the signal.

Setting [1] is: Conditions B or C, read-out: RORγt (FL) Reporter Assay B or C, IC50.
Where [2] appears, read: read-out: RORγt (FL) Reporter Assay B or C, IC50.

Read-outs that look alike come from different tables or passages of the source.

Chain of full-length human RORγt (P51449 other isoform, or with tags, fused parts or gaps): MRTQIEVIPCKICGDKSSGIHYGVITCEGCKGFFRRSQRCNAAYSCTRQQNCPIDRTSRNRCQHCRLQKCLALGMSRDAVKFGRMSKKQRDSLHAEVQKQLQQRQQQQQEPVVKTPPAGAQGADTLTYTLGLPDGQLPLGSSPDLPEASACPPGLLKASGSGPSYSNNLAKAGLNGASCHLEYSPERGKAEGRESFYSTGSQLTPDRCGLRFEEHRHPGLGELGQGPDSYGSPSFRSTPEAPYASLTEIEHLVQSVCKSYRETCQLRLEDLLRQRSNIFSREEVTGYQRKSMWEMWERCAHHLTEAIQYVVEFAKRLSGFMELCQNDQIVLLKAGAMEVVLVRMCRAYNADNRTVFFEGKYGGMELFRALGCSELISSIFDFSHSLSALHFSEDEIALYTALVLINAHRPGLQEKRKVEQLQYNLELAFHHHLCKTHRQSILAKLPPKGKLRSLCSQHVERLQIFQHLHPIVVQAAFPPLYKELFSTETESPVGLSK

For the compound `CC[C@H](Nc1cc(C(F)(F)F)c(-c2sc(C(=O)NCC(C)(C)O)nc2C(=O)N2CCC[C@@H]2C)cn1)C1CC1` (relative stereo) [Example 128, 5-(6-(((S*)-1-Cyclopropylpropyl)amino)-4-(trifluoromethyl)pyridin-3-yl)-N-(2-hydroxy-2-methylpropyl)-4-((S)-2-methylpyrrolidine-1-carbonyl)thiazole-2-carboxamide], the “RORγt (FL) Reporter Assay B or C, % inhibition (value marked *)” value (“RORγt … % inhibition (value marked *)” for short) (Conditions B or C) was 107* %. In addition, the half-maximal inhibitory concentration (IC50) under setting [1] stood at 0.023 µM.
As to `C[C@H]1CC(F)(F)CN1C(=O)c1nc(C(=O)NCC(C)(C)O)sc1-c1cnc(NC2(C(F)(F)F)CCC2)cc1C(F)F` [Example 124, (S)-4-(4,4-Difluoro-2-methylpyrrolidine-1-carbonyl)-5-(4-(difluoromethyl)-6-((1-(trifluoromethyl)cyclobutyl)amino)pyridin-3-yl)-N-(2-hydroxy-2-methylpropyl)thiazole-2-carboxamide], the “RORγt … % inhibition (value marked *)” value (Conditions B or C) is 108* %. The half-maximal inhibitory concentration (IC50) under setting [1] came to 0.021 µM.
On the same counts, the results for `C[C@H](Nc1cc(C(F)F)c(-c2sc(C(=O)NCC(C)(C)O)nc2C(=O)N2CCCC[C@@H]2C)cn1)C(F)(F)F` [Example 144] are 106* % and 0.076 µM.
`CC[C@H](Nc1cc(C(F)(F)F)c(-c2sc(C(=O)NCC(C)(C)O)nc2C(=O)N2CCC[C@@H]2C)cn1)C(F)(F)F` [Example 111, N-(2-Hydroxy-2-methylpropyl)-4-((S)-2-methylpyrrolidine-1-carbonyl)-5-(6-(((S)-1,1,1-trifluorobutan-2-yl)amino)-4-(trifluoromethyl)pyridin-3-yl)thiazole-2-carboxamide]: the “RORγt … % inhibition (value marked *)” value (Conditions B or C) is listed as 106* %. In addition, under setting [1], the IC50 was determined as 0.029 µM.
For the compound `CC[C@H](Nc1cc(C(F)F)c(-c2sc(C(=O)NCC(C)(C)O)nc2C(=O)N2CC(F)(F)C[C@@H]2C)cn1)C(F)(F)F` [Example 90, 4-((S)-4,4-Difluoro-2-methylpyrrolidine-1-carbonyl)-5-(4-(difluoromethyl)-6-(((S)-1,1,1-trifluorobutan-2-yl)amino)pyridin-3-yl)-N-(2-hydroxy-2-methylpropyl)thiazole-2-carboxamide], the “RORγt … % inhibition (value marked *)” value (Conditions B or C) is 86* %. Under setting [1], the IC50 is 0.11 µM.
As for `C[C@H](NC(=O)c1nc(C(=O)N2CCC[C@@H]2C)c(-c2cnc(NC(C)(C)C)cc2C(F)(F)F)s1)C(C)(C)O` [Example 336, 5-[6-(tert-Butylamino)-4-(trifluoromethyl)-3-pyridyl]-N-[(1S)-2-hydroxy-1,2-dimethyl-propyl]-4-[(2S)-2-methylpyrrolidine-1-carbonyl]thiazole-2-carboxamide], the inhibition at 3 µM is 108%. In addition, under setting [2], the IC50 was found to be 0.0056 µM.
Take `C[C@H]1CCCCN1C(=O)c1nc(C(=O)NCC(C)(C)O)sc1-c1cnc(NC2CCCC2)cc1C(F)(F)F` [Example 27, (S)-5-(6-(Cyclopentylamino)-4-(trifluoromethyl)pyridin-3-yl)-N-(2-hydroxy-2-methylpropyl)-4-(2-methylpiperidine-1-carbonyl)thiazole-2-carboxamide]: the inhibition at 6 µM is 106%. In addition, the 50% inhibitory concentration (IC50) under setting [1] amounted to 0.0084 µM.
With `C[C@H]1CCCN1C(=O)c1nc(C(=O)NCc2n[nH]c(=O)o2)sc1-c1cnc(NC(C)(C)C)cc1C(F)(F)F` [Example 305, (S)-5-(6-(tert-Butylamino)-4-(trifluoromethyl)pyridin-3-yl)-4-(2-methylpyrrolidine-1-carbonyl)-N-((5-oxo-4,5-dihydro-1,3,4-oxadiazol-2-yl)methyl)thiazole-2-carboxamide], the inhibition at 3 µM is 100%. In addition, the IC50 under setting [2] worked out at 0.036 µM.
As for `C[C@H](Nc1cc(C(F)(F)F)c(-c2sc(C(=O)NCC(C)(C)O)nc2C(=O)N2CCC[C@@H]2C)cn1)C(F)(F)F` [Example 78, N-(2-Hydroxy-2-methylpropyl)-4-((S)-2-methylpyrrolidine-1-carbonyl)-5-(4-(trifluoromethyl)-6-(((S)-1,1,1-trifluoropropan-2-yl)amino)pyridin-3-yl)thiazole-2-carboxamide], the “RORγt … % inhibition (value marked *)” value (Conditions B or C) is on record as 110* %. In addition, under setting [1], the IC50 came out at 0.049 µM.
In the case of `C[C@H](Nc1cc(C(F)(F)F)c(-c2sc(C(=O)NCC(C)(C)O)nc2C(=O)N2CC(F)(F)C[C@@H]2C)cn1)C1CC1` [Example 142, 5-(6-(((S)-1-Cyclopropylethyl)amino)-4-(trifluormethyl)pyridin-3-yl)-4-((S)-4,4-difluoro-2-methylpyrrolidine-1-carbonyl)-N-(2-hydroxy-2-methylpropyl)thiazole-2-carboxamide], the “RORγt … % inhibition (value marked *)” value (Conditions B or C) is on record as 109* %. Besides, the half-inhibitory concentration (IC50) under setting [1] was determined as 0.027 µM.
Regarding `C[C@H]1CC(F)(F)CN1C(=O)c1nc(C(=O)NCC(C)(C)O)sc1-c1cnc(NCC(C)(C)C)cc1C(F)F` [Example 115, (S)-4-(4,4-Difluoro-2-methylpyrrolidine-1-carbonyl)-5-(4-(difluoromethyl)-6-(neopentylamino)pyridin-3-yl)-N-(2-hydroxy-2-methylpropyl)thiazole-2-carboxamide], under “Conditions B or C”, the “RORγt … % inhibition (value marked *)” value is 115* %. Moreover, the IC50 under setting [1] amounted to 0.028 µM.
With `CC(C)(O)CNC(=O)c1nc(C(=O)N2C3CCC2CC3)c(-c2cnc(NCC(C)(C)C(F)(F)F)cc2C(F)(F)F)s1` [Example 122, 4-((1s,4s)-7-Azabicyclo[2.2.1]heptane-7-carbonyl)-N-(2-hydroxy-2-methylpropyl)-5-(6-((3,3,3-trifluoro-2,2-dimethylpropyl)amino)-4-(trifluoromethyl)pyridin-3-yl)thiazole-2-carboxamide], the “RORγt … % inhibition (value marked *)” value (Conditions B or C) is given as 102* %. The half-maximal inhibitory concentration (IC50) under setting [1] came out at 0.033 µM.
On to `C[C@H]1CCCN1C(=O)c1nc(C(=O)NC[C@@H](O)C(C)(C)O)sc1-c1cnc(NC(C)(C)C)cc1C(F)(F)F` (single isomer, unassigned) [Example 243, 5-(6-(tert-Butylamino)-4-(trifluoromethyl)pyridin-3-yl)-N—((R*)-2,3-dihydroxy-3-methylbutyl)-4-((S)-2-methylpyrrolidine-1-carbonyl)thiazole-2-carboxamide], for which the “RORγt … % inhibition (value marked *)” value (Conditions B or C) was 95* %. Also, the 50% inhibitory concentration (IC50) under setting [1] was 0.0068 µM.
`C[C@H](Nc1cc(C(F)(F)F)c(-c2sc(C(=O)NCC(C)(C)O)nc2C(=O)N2CCCC[C@@H]2C)cn1)C(F)(F)F` [Example 47, N-(2-Hydroxy-2-methylpropyl)-4-((S)-2-methylpiperidine-1-carbonyl)-5-(4-(trifluoromethyl)-6-(((S)-1,1,1-trifluoropropan-2-yl)amino)pyridin-3-yl)thiazole-2-carboxamide]: the “RORγt … % inhibition (value marked *)” value (Conditions B or C) is 96* %. Also, the IC50 under setting [1] is 0.0054 µM.
On the same counts, the results for `C[C@H](NC(=O)c1nc(C(=O)N2CCC[C@@H]2C)c(-c2cnc(N[C@@H](C)C(F)(F)F)cc2C(F)F)s1)C(C)(C)O` [Example 199, 5-(4-(Difluoromethyl)-6-(((S)-1,1,1-trifluoropropan-2-yl)amino)pyridine-3-yl)-N—((S)-3-hydroxy-3-methylburan-2-yl)-4-((S)-2-methylpyrrolidine-1-carbonyl)thiazole-2-carboxamide] are 94* % and 0.12 µM.
Turning to `C[C@H](NC(=O)c1nc(C(=O)N2CC(F)(F)C[C@@H]2C)c(-c2cnc(N[C@@H](C)C(F)(F)F)cc2C(F)F)s1)C(C)(C)O` [Example 197], for the setting “Conditions B or C”, the “RORγt … % inhibition (value marked *)” value is on record as 91* %. The 50% inhibitory concentration (IC50) under setting [1] worked out at 0.066 µM.
Turning to `C[C@H](Nc1cc(C(F)(F)F)c(-c2sc(C(=O)NCC(C)(C)O)nc2C(=O)N2CCC[C@@H]2C)cn1)C1CC1` [Example 40, 5-(6-(((S)-1-Cyclopropylethyl)amino)-4-(trifluoromethyl)pyridin-3-yl)-N-(2-hydroxy-2-methylpropyl)-4-((S)-2-methylpyrrolidine-1-carbonyl)thiazole-2-carboxamide], the inhibition at 6 µM was found to be 102%. In addition, the IC50 under setting [1] came out at 0.013 µM.
Consider `O=C(N[C@H]1C[C@H](O)C1)c1nc(C(=O)N2C3CCC2CC3)c(-c2cnc(N[C@@H](C3CC3)C(F)(F)F)cc2C(F)F)s1` [Example 318, 4-((1s,4s)-7-Azabicyclo[2.2.1]heptane-7-carbonyl)-5-(6-(((S)-1-cyclopropyl-2,2,2-trifluoroethyl)amino)-4-(difluoromethyl)pyridin-3-yl)-N-((1r,3S)-3-hydroxycyclobutyl)thiazole-2-carboxamide], for which the inhibition at 3 µM turned out to be 86%. Also, under setting [2], the half-maximal inhibitory concentration (IC50) was 0.028 µM.
As to `CC(C)(O)CNC(=O)c1nc(C(=O)N2C3CCC2CC3)c(-c2cnc(NC3(C)CCC3)cc2C(F)(F)F)s1` [Example 140, 4-((1s,4s)-7-Azabicyclo[2.2.1]heptane-7-carbonyl)-N-(2-hydroxy-2-methylpropyl)-5-(6-((1-methylcyclobutyl)amino)-4-(trifluoromethyl)pyridin-3-yl)thiazole-2-carboxamide], the “RORγt … % inhibition (value marked *)” value (Conditions B or C) is listed as 89* %. The half-inhibitory concentration (IC50) under setting [1] was 0.011 µM.
`CC(C)(O)CNC(=O)c1nc(C(=O)N2C3CCC2CC3)c(-c2cnc(NC3(C)CCC3)cc2C(F)F)s1` [Example 169, 4-((1s,4s)-7-Azabicyclo[2.2[1]heptane-7-carbonyl)-5-(4-(difluoromethyl)-6-((1-methylcyclobutyl)amino)pyridine-3-yl)-N-(2-hydroxy-2-methylpropyl))thiazole-2-carboxamide]: the “RORγt … % inhibition (value marked *)” value (Conditions B or C) is recorded as 94* %. Further, the half-inhibitory concentration (IC50) (RORγt (FL) Reporter Assay B or C, IC50 (μM), Conditions B or C) was determined as 0.012 µM.
